For one assay, the target named is T1, human LPA3 (Homo sapiens, UniProt Q9UBY5).
T1 construct: The full-length cDNA fragment for human LPA3 was obtained by PCR from the vector
T1 sequence (Q9UBY5 1-353): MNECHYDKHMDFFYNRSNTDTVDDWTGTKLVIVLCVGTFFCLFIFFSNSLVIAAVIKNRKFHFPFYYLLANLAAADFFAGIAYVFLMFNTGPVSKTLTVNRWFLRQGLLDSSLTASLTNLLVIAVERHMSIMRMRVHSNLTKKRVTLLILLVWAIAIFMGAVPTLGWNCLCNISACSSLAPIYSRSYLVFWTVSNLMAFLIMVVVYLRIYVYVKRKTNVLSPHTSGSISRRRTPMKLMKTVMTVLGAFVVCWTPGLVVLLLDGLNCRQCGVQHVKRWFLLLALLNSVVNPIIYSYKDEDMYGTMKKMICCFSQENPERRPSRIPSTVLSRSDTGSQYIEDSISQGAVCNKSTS
As to the kind of experiment: HLPA3 Ca Flux assay (LPA3 calcium flux assay). The format is cell-based. Conditions: CHO cells expressing human LPA3, 10 nM LPA. Here is the method:
A vector containing the human LPA3 receptor cDNA was obtained from the Missouri S&T cDNA Resource Center (www.cdna.org). The full-length cDNA fragment for human LPA3 was obtained by PCR from the vector. The nucleotide sequence of the cloned human LPA3 was determined by sequencing and confirmed to be identical to the published human LPA3 sequence (NCBI accession number NM 012152). The cDNA was cloned into the pcDNA5/FRT expression plasmid and transfected in CHO cells using lipofectamine 2000 (Invitrogen Corp., USA). Clones stably expressing human LPA3 were selected using hygromycin and identified as cells that show Ca-influx in response to LPA.
Human LPA1 or LPA3 expressing CHO cells are seeded at 20,000-45,000 cells per well in a 96-well poly-D-lysine coated plate one or two days before the assay. Prior to the assay, the cells are washed once with PBS and then cultured in serum-free media overnight. On the day of the assay, a calcium indicator dye (Calcium 4, Molecular Devices) in assay buffer (HBSS with Ca^2+ and Mg^2+ and containing 20 mM Hepes and 0.3% fatty-acid free human serum albumin) is added to each well and incubation continued for 1 hour at 37° C. […] Cells are the stimulated by the addition of 10 nM LPA and intracellular Ca^2+ measured using the Flexstation 3 (Molecular Devices). IC50s are determined using Graphpad prism analysis of drug titration curves.
(In general: Calcium assays in cells follow changes in intracellular calcium, usually with a dye or a luminescent sensor.)

Another assay deals with T2, human LPA1 (Homo sapiens, UniProt Q92633).
T2 construct: the full-length cDNA for human LPA1 was obtained by PCR of the reverse transcription reaction; expressed in transfected cells
Briefly: HLPA1 Ca Flux assay (LPA1 calcium flux assay). It is filed as cell-based. Conditions: CHO cells expressing human LPA1, 10 nM LPA. The method, then: A 1.1 kb cDNA encoding the human LPA1 receptor was cloned from human lung. Human lung RNA (Clontech Laboratories, Inc. USA) was reverse transcribed using the RETROscript kit (Ambion, Inc.) and the full-length cDNA for human LPA1 was obtained by PCR of the reverse transcription reaction. The nucleotide sequence of the cloned human LPA1 was determined by sequencing and confirmed to be identical to the published human LPA1 sequence (An et al. Biochem. Biophys. Res. Commun. 231:619 (1997). The cDNA was cloned into the pcDNA5/FRT expression plasmid and transfected in CHO cells using lipofectamine 2000 (Invitrogen Corp., USA). Clones stably expressing human LPA1 were selected using hygromycin and identified as cells that show Ca-influx in response to LPA.
Human LPA1 or LPA3 expressing CHO cells are seeded at 20,000-45,000 cells per well in a 96-well poly-D-lysine coated plate one or two days before the assay. Prior to the assay, the cells are washed once with PBS and then cultured in serum-free media overnight. On the day of the assay, a calcium indicator dye (Calcium 4, Molecular Devices) in assay buffer (HBSS with Ca^2+ and Mg^2+ and containing 20 mM Hepes and 0.3% fatty-acid free human serum albumin) is added to each well and incubation continued for 1 hour at 37° C. 10 μl of test compounds in 2.5% DMSO are added to the cells and incubation continued at room temperature for 30 minutes. Cells are the stimulated by the addition of 10 nM LPA and intracellular Ca^2+ measured using the Flexstation 3 (Molecular Devices). IC50s are determined using Graphpad prism analysis of drug titration curves.

For assay [1], the system named is Female C57BL/6 mice. As to the kind of experiment: Mouse carbon tetrachloride (CCl4)-induced liver fibrosis model. It is filed as in vivo. The settings on record: for collagen deposition in the liver: as compared to the untreated group. The method, then:
Female C57BL/6 mice (Harlan, 20-25 g) housed 4/cage are given free access to food and water and allowed to acclimate for at least 7 days prior to test initiation. After the habituation phase, mice receive CCl4 (0.5-1.0 ml/kg body weight) diluted in corn oil vehicle (100 μL volume) via i.p. injection twice a week for 4-6 weeks. (Higazi, A. A. et al., Clin Exp Immunol. 2008 April; 152(1):163-73. Epub 2008 Feb. 14.). Control mice receive an equivalent volume of corn oil vehicle only. Test compound or vehicle is delivered po, ip or sc daily. At the end of the study (4-6 weeks after first i.p. injection of CCl4), mice are sacrificed using inhaled isoflurane and blood is drawn via cardiac puncture for subsequent analysis of ALT/AST levels. The liver is harvested, and one half of the liver is frozen at −80° C. and the other half is fixed in 10% neutral buffered formalin for histological assessment of liver fibrosis using light microscopy (10× magnification). Liver tissue homogenates are analyzed for collagen levels using Sircol (Biocolor Ltd, UK). Fixed Liver tissue is stained using hematoxylin and eosin (H&E) and trichrome and liver fibrosis is determined by quantitative, computer-assisted densitometry of collagen in liver tissue sections using light microscopy. Plasma and liver tissue lysates are also analyzed for concentrations of inflammatory, pro-fibrotic and tissue injury biomarkers including transforming growth factor β1, hyaluronic acid, tissue inhibitor of metalloproteinase-1, matrix matelloproteinase-7, connective tissue growth factor and lactate dehydrogenase activity, using commercially available ELISA. The resulting data are plotted using Graphpad prism and statistical differences between groups determined.

A further assay relates to Female CD-1 mice. Briefly: Bleomycin-induced lung fibrosis model in mice. The format is in vivo. Conditions: acute setting (3 day). From the text:
Female CD-1 mice (Harlan, 25-30 g) are housed 4 per cage, given free access to food and water and allowed to acclimate for at least 7 days prior to test initiation. After the habituation phase, mice are lightly anesthetized with isoflurane (5% in 100% O2) and administered with bleomycin sulfate (0.01-5 U/kg, Henry Schein) via intratracheal instillation (Cuzzocrea S et al. Am J Physiol Lung Cell Mol. Physiol. 2007 May; 292(5):L1095-104. Epub 2007 Jan. 12.). Mice are returned to their cages and monitored daily for the duration of the experiment. Test compound or vehicle is delivered po, ip or sc daily. The route and frequency of dosing is based on previously determined pharmacokinetic properties. […] BALF is analyzed for concentrations of inflammatory, pro-fibrotic and tissue injury biomarkers including transforming growth factor β1, hyaluronic acid, tissue inhibitor of metalloproteinase-1, matrix matelloproteinase-7, connective tissue growth factor and lactate dehydrogenase activity, using commercially available ELISA. […] Total cell counts are then obtained using a Hemavet hematology system (Drew Scientific, Wayne, Pa.) and differential cells counts are determined using Shandon cytospin (Thermo Scientific, Waltham, Mass.). […] The data are plotted using Graphpad prism and statistical differences between groups determined.

Assay [2] has as its system Female C57BL/6 mice. As to the kind of experiment: Mouse unilateral ureteral obstruction kidney fibrosis model. It is filed as in vivo. The settings on record: as compared to the untreated group. Here is the method: Female C57BL/6 mice (Harlan, 20-25 g) housed 4/cage will be given free access to food and water and allowed to acclimate for at least 7 days prior to test initiation. After the habituation phase, mice undergo unilateral ureteral obstruction (UUO) surgery or sham to left kidney. Briefly, a longitudinal, upper left incision is performed to expose the left kidney. The renal artery is located and 6/0 silk thread is passed between the artery and the ureter. The thread is looped around the ureter and knotted 3 times insuring full ligation of ureter. The kidney is returned to abdomen, the abdominal muscle is sutured and the skin is stapled closed. Mice are returned to their cages and monitored daily for the duration of the experiment. Test compound or vehicle is delivered po, ip or sc daily. The route and frequency of dosing is based on previously determined pharmacokinetic properties. All animals are sacrificed using inhaled isoflurane 4, 8 or 14 days after UUO surgery. […] Kidney tissue homogenates are analyzed for collagen levels using Sircol (Biocolor Ltd, UK). Fixed kidney tissue is also stained using hematoxylin and eosin (H&E) and trichrome and kidney fibrosis is determined by quantitative, computer-assisted densitometry of collagen in […] tissue sections using light microscopy. […] The resulting data are plotted using Graphpad prism and statistical differences between groups determined.

The conditions of assay [3]: cited from earlier work.
For assay [4], the system named is highly peritoneal metastatic pancreatic cancer cell line. Conditions: cited from earlier work.
The subject of assay [5] is pancreatic cancer cell lines. Conditions: cited from earlier work.
For assay [6], the system named is Unilateral ureteral obstruction (UUO; animal model of renal fibrosis) mice. The settings on record: LPA1 (−/−) mice: renal fibrosis significantly attenuated; cited from earlier work.

The text below walks through data of patent US20110301211A1, “ANTAGONISTS OF LYSOPHOSPHATIDIC ACID RECEPTORS” (priority 2008, published 2011).

A value given as a limit tells only on which side of the number the result lay.

T2 sequence (Q92633 whole entry): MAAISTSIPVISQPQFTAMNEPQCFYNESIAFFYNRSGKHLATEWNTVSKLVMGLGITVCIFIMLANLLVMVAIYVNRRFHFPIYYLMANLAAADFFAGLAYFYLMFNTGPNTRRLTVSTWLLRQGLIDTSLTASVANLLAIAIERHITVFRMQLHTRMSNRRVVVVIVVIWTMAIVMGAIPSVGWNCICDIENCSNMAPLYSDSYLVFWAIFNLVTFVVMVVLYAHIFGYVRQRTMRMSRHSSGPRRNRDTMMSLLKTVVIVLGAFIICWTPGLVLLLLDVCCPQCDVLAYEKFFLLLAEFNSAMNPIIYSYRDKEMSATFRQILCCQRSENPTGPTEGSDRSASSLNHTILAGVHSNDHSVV

As for `COc1ccccc1C(C)OC(=O)Nc1c(C)noc1-c1ccc(-c2ccc(CC(=O)O)cc2)cc1` (centres unmarked) [Compound 6, (4′-{4-[1-(2-Methoxy-phenyl)-ethoxycarbonylamino]-3-methyl-isoxazol-5-yl}-biphenyl-4-yl)-acetic Acid], on human LPA3, the IC50 (as a rule, the point on the concentration scale where inhibition reaches its midpoint) lay within 1 to 50 µM.
As for `COc1ccc(CC(=O)O)cc1-c1ccc(-c2onc(C)c2NC(=O)OC(C)c2ccccc2Cl)cc1` (centres unmarked) [Compound 7, (4′-{4-[1-(2-Chloro-phenyl)-ethoxycarbonylamino]-3-methyl-isoxazol-5-yl}-6-methoxy-biphenyl-3-yl)-acetic Acid], the IC50 on human LPA1 fell in the range of 1 to 50 µM.
For the compound `Cc1noc(-c2ccc(-c3cccc(CC(=O)O)c3)cc2)c1NC(=O)OC(C)c1ccccc1Cl` (centres unmarked) [Compound 12, (4′-{4-[1-(2-Chloro-phenyl)-ethoxycarbonylamino]-3-methyl-isoxazol-5-yl}-biphenyl-3-yl)-acetic acid], on human LPA3, the IC50 was 0.3 to 1 µM.
With `Cc1noc(-c2ccc(-c3ccc(CC(=O)O)cc3)cc2)c1NC(=O)O[C@H](C)c1ccccc1Cl` [Compound 27, (4′-{4-[(R)-1-(2-Chloro-phenyl)-ethoxycarbonylamino]-3-methyl-isoxazol-5-yl}-biphenyl-4-yl)-acetic acid], the “effect on collagen deposition compared with pirfenidone” value with Female C57BL/6 mice [1] (30 mg/kg, po, qd) was “same effect on collagen deposition as pirfenidone”. Moreover, the “collagen deposition in the liver” value in the assay on Female C57BL/6 mice [1] was “significantly reduced”. The “tissue inhibitor of metalloproteinase-1 (TIMP-1; pro-fibrotic marker) concentrations in BALF” value in the assay on Female CD-1 mice is on record as “significantly reduced”. Moreover, the “reduction of kidney fibrosis” value in the assay with Female C57BL/6 mice [2] was “at least 20%”.
`Cc1noc(-c2ccc(-c3ccc(CC(=O)O)cc3)cc2)c1NC(=O)O[C@H](C)c1ccccc1` [Compound 37]: in the assay with Female C57BL/6 mice [1], the “collagen deposition in the liver” value is on record as “significantly reduced”. Moreover, in the assay with Female CD-1 mice, the “tissue inhibitor of metalloproteinase-1 (TIMP-1; pro-fibrotic marker) concentrations in BALF” value is recorded as “reduced”. Besides, the “reduction of kidney fibrosis” value in the assay with Female C57BL/6 mice [2] is listed as 55%.
As for `COc1ccc(C(C)OC(=O)Nc2c(C)noc2-c2ccc(-c3ccc(CC(=O)O)cc3)cc2)c(F)c1` (centres unmarked) [Compound 40, (4′-{4-[1-(2-Fluoro-4-methoxy-phenyl)-ethoxycarbonylamino]-3-methyl-isoxazol-5-yl}-biphenyl-4-yl)-acetic acid], the IC50 on human LPA1 was 1 to 50 µM.
On to `Cc1noc(-c2ccc(-c3cccc(CC(=O)O)c3)cc2)c1NC(=O)O[C@H](C)c1ccccc1` [Compound 43, {4′-[3-Methyl-4-((R)-1-phenyl-ethoxycarbonylamino)-isoxazol-5-yl]-biphenyl-3-yl}-acetic Acid], for which the IC50 on human LPA1 was 0.3 to 1 µM.
For `Cc1noc(-c2ccc(-c3ccc(CC(=O)NCCS(=O)(=O)O)cc3)cc2)c1NC(=O)O[C@H](C)c1ccccc1` [Compound 67, 2-(2-{4′-[3-Methyl-4-((R)-1-phenyl-ethoxycarbonylamino)-isoxazol-5-yl]-biphenyl-4-yl}-acetylamino)-ethanesulfonic Acid], at human LPA1, the IC50 was below 0.3 µM.
Regarding `Cc1noc(-c2ccc(CSCCC(=O)O)cc2)c1NC(=O)OC(C)c1ccccc1Cl` (centres unmarked) [Ki16425], in [3], the “metastasis to bone in vivo” value was “inhibit”. For the same compound, the “LPA-induced and ascites-induced invasion activity” value in [4] is given as “blocked”. Besides, in assay [5], the “in vitro migration in response to LPA and peritoneal fluid (ascites) from pancreatic cancer patients” value is reported as “effectively blocked”. In addition, the “development of renal fibrosis in UUO mice” value in assay [6] is “closely resembled the LPA1 (−/−) mice”.
